In patent EP4692059A1, “CATIONIC LIPID HAVING DISULFIDE BOND” (Tohoku University, priority 2023, dated 2024):

Columns and labels:
[1] = Particle size, PdI and zeta potential of mRNA-encapsulating LNPs by dynamic light scattering (Experimental Example 2); assay type: physicochemical; details: mRNA-encapsulating LNP containing the cationic lipid
Procedure: An acidic buffer solution (total amount: 1080 µL) of nucleic acid was prepared by weighing 7.2 µg of mRNA solution (0.6 mg/mL) in a 5 mL tube and adding acidic malate buffer (20 mM, pH 3.0).
An acidic buffer solution of nucleic acid and an ethanol solution of lipid were each weighed in a syringe.
The particle size, PdI (Polydispersity Index), and zeta potential of the mRNA-encapsulating LNP prepared by the method of the above-mentioned 1 were measured by a dynamic light scattering method (Zetasizer Nano; Malvern).

[2] = Particle size, PdI and zeta potential of mRNA-encapsulating LNPs by dynamic light scattering (Experimental Example 6); assay type: physicochemical; details: mRNA-encapsulating LNP
Procedure: An acidic buffer solution (total amount: 1300 µL) of nucleic acid was prepared by weighing 6.5 µg of mRNA solution (0.6 mg/mL) in a 5 mL tube and adding acidic citrate buffer (20 mM, pH 5.0).
An acidic buffer solution of nucleic acid and an ethanol solution of lipid were each weighed in a syringe. […] The obtained concentrate was diluted with TBS to a lipid concentration of 2 mM to give a dispersion containing LNP.
The particle size, PdI (Polydispersity Index), and zeta potential of the mRNA-encapsulating LNP prepared by the method of the above-mentioned 1 were measured by a dynamic light scattering method (Zetasizer Nano; Malvern). […]

[3] = tested on: mouse red blood cells; assay: Hemolysis activity (membrane fusion ability) at pH 7.4 and 5.5 (Experimental Example 8); assay type: cell-based, ICR mice; details: physiological pH (7.4); final lipid concentration 100 µM; Fig. 3
Procedure: LNP encapsulating mRNA that expresses luciferase (cationic lipid:DOPC:Chol:DMG-PEG2k = 52.5:7.5:40:1.5 (molar ratio)) was prepared by the method described in […], 1. As cationic lipid, the cationic lipid of Comparative Example, compound 94, compound 112, compound 162, compound 181, or compound 194 was used.
The collected blood was immediately mixed with 1.0 µL of heparin solution (5000 U/5 mL). About 9 mL of PBS was added to the blood to make the total volume 10 mL. The mixture was then mixed by inversion and centrifuged (4°C, 400 g, 10 min). The supernatant containing plasma components was removed using a Pasteur pipette. About 9 mL of PBS was added to the blood cell components to make the total volume 10 mL, and the mixture was centrifuged again. A similar washing procedure was repeated 4 times to obtain mouse red blood cells.
2, 4, 6, 8, and 10 µL of mouse red blood cells were weighed and diluted with PBS containing 1 w/v% Triton-X100. The entire diluted solution was transferred to a clear 96-well plate, and the absorbance at 545 nm was measured using a plate reader. A calibration curve was created using these samples, and the point where the absorbance reached 1 was determined as the amount of blood cells to be used in the hemolysis assay. Empty LNP solution was weighed into an Eppendorf tube and diluted with malic acid-PBS buffer (pH 5.5, pH 7.4), followed by addition of mouse red blood cells. The final lipid concentration was 100 µM at pH 7.4 and 33.3 µM at pH 5.5, and the final volume of the solution was 250 µL. Each tube was shaken at 1900 rpm for 15 min. Each sample was centrifuged under centrifugation conditions (4°C, 400 g, 5 min), and 100 µL of the supernatant was transferred to a clear 96-well plate and the absorbance at 545 nm was measured. Untreated red blood cells were used as the negative control. 1 w/v% Triton-X was used as the positive control. The hemolysis activity of each sample was calculated using the following formula: Hemolysis activity (%) = 100×(absorbance of each sample - absorbance of negative control)/(absorbance of positive control - absorbance of negative control).

[4] = tested on: HeLa cells; assay: In vitro gene expression in HeLa cells (luciferase mRNA-encapsulating LNP, cumulative luminescence in 24 hr)
Procedure: LNP encapsulating mRNA that expresses luciferase (cationic lipid:DOPC:Chol:DMG-PEG2k = 50:10:40:1 (molar ratio)) was prepared by the method described in [Experimental Example 2], 1.
HeLa cells, which are human cervical cancer cells, were seeded in a 3.5 cm dish at 5.0×10^4 cells/2 mL/Dish 24 hours before transfection. After 24 hr, the medium was changed to a culture medium (D-MEM) containing 0.1 mM D-luciferin. The prepared mRNA-encapsulating LNP was diluted with PBS to an mRNA concentration of about 1 µg/mL. The diluted mRNA-encapsulating LNP solution (about 200 µL, mRNA: 0.2 µg) was added to a 3.5 cm dish, and set in an incubator luminometer KronosDio. The luminescence intensity of luciferase was measured for 2 min every one hour. The cumulative luciferase luminescence intensity in 24 hr was calculated from the obtained time change of expression. […] In Comparative Example, the cationic lipid described in Table 2 was used.

[5] = dispersion in PBS, dynamic light scattering (Table 5-3)
[6] = cationic lipid:DOPC:Chol=49:7.5:42.5:1, dispersion in TBS, dynamic light scattering (Tables 8-1, 8-2)

CCCCCCCC/C=C\CCCCCCCC(=O)Oc1ccc(CC(=O)OCCC2CCN(CCSSCCN3CCC(CCOC(=O)Cc4ccc(OC(=O)CCCCCCC/C=C\CCCCCCCC)cc4)CC3)CC2)cc1 [Comparative Example, reference compound]
zeta potential (mV) ([1]; dispersion in PBS (Table 5-3)): -4.47 mV | PdI [1, 5]: 0.099 | particle size (nm) [1, 5]: 108.70 nm | zeta potential (mV) ([2]; cationic lipid:DOPC:Chol=49:7.5:42.5:1, dispersion in TBS (Tables 8-1, 8-2)): -2.68 mV | PdI [2, 6]: 0.075 | particle size (nm) [2, 6]: 123.80 nm | hemolysis activity [3]: none | cumulative luciferase luminescence intensity (RLU) in 24 hr ([4]; LNP cationic lipid:DOPC:Chol:DMG-PEG2k = 50:10:40:1, mRNA 0.2 µg per dish, E+0a means 10^a): 1.85E+07 RLU | relative luminescence intensity ([4]; cumulative intensity in 24 hr relative to cationic lipid of Comparative Example): 1.00
